Results from US7718393B2, “Method for determining the efficacy of an anthracycline anticancer agent” (Sysmex Corporation, priority 2006, dated 2010).

Key:
Type in all cases: cell-based, human
[1] = tested on: MCF-7; assay: Cell growth test with or without doxorubicin, MCF-7; conditions: MCF-7, 1 μM doxorubicin, FIG. 3
Excerpt: (§1) Human breast cancer cells MCF-7, T47-D, SK-B-3, SK-Br-3, MDA-MB-231 and MDA-MB-468 were purchased from American Type Culture Collection (ATCC). 38 cancer cell samples (Nos. 1 to 38) were excised from 38 breast cancer patients with invasive breast cancer classified in stages I to IIIb according to the breast cancer stage classification. The 38 breast cancer patients are those who after removal of cancer tissue, received chemotherapy consisting essentially of administration of anthracycline anticancer agents. Each human breast cancer cell or cancer tissue was proliferated in Eagle's modified minimum essential medium (GIBCO) (hereinafter referred to merely as medium) containing 10% FCS (Commonwealth Laboratories), 1% (v/v) nonessential amino acid (GIBCO), 2 mM L-glutamine (Sigma Chemical), 100 μg/ml streptomycin (GIBCO), 100 U/ml penicillin (GIBCO) and 0.28 μg/ml fungizone (Squib Pharmaceuticals) in a humidified atmosphere of 5% CO2/95% air at 37° C. 3.0×10^3 human breast cancer cells or cancer tissue were inoculated onto a medium in a 96-well plate and cultured for 1 day in a humidified atmosphere of 5% CO2/95% air at 37° C. Thereafter, the medium was exchanged with a medium with or without 1 μM doxorubicin. Cell proliferation after 0, 24, 48 and 72 hours was measured by using a cell proliferation assay kit (Nippon Chemi-Con Corporation) or Cell Titer-Glo Luminescent Cell Viability assay (Promega) in accordance with its manufacturer's instructions.

[2] = tested on: MDA-MB-231; assay: Cell growth test with or without doxorubicin, MDA-MB-231; conditions: MDA-MB-231, 1 μM doxorubicin, FIGS. 6 and 11
Excerpt: as §1

[3] = tested on: T47-D; assay: Cell growth test with or without doxorubicin, T47-D; conditions: 1 μM doxorubicin, FIG. 4
Excerpt: as §1, with “Thereafter, the medium was exchanged with a medium with or without 1 μM doxorubicin.” left out

[4] = tested on: SK-Br-3; assay: Cell growth test with or without doxorubicin, SK-Br-3; conditions: SK-Br-3, 1 μM doxorubicin, FIGS. 5 and 10
Excerpt: as §1, with “Thereafter, the medium was exchanged with a medium with or without 1 μM doxorubicin.” left out

[5] = tested on: MDA-MB-468; assay: Cell growth test with or without doxorubicin, MDA-MB-468; conditions: MDA-MB-468, 1 μM doxorubicin, FIGS. 7 and 9
Excerpt: as §1, with “Thereafter, the medium was exchanged with a medium with or without 1 μM doxorubicin.” left out

[6] = tested on: MDA-MB-453; assay: Cell growth test with or without doxorubicin, MDA-MB-453; conditions: MDA-MB-453, 1 μM doxorubicin, FIG. 8

Q: `COc1cccc2c1C(=O)c1c(O)c3c(c(O)c1C2=O)C[C@@](O)(C(=O)CO)C[C@@H]3O[C@H]1C[C@H](N)[C@H](O)[C@H](C)O1` [doxorubicin] was tested. Which “Cell proliferation as compared with the control” value ([1]; 0 to 72 hours) did it give?
A: The value was “suppressed”.

Q: What about the “Living cells from 0 hour after administration” value (“Living cells from 0 hour” for short) ([1]; 0 to 72 hours) of the same compound?
A: The value was “hardly changed or are increased”.

Q: And the Induction of apotosis [1]?
A: The Induction of apotosis was “very low”.

Q: What about the “Cell proliferation as compared with the control” value ([2]; 0 to 72 hours) of the same compound?
A: Its value is “suppressed”.

Q: What about the “Living cells from 0 hour” value ([2]; 0 to 72 hours) of the same compound?
A: Its value is “hardly changed or are increased”.

Q: What about the Induction of apotosis [2] of the same compound?
A: The Induction of apotosis was “very low”.

Q: What about the “Living cells from 0 hour” value ([3]; 0 to 72 hours) of the same compound?
A: Its value is “gradually decreased with time”.

Q: What about the Induction of apotosis [3] of the same compound?
A: Its Induction of apotosis is “induced, but the effect thereon can be seen to be lower”.

Q: And the “Living cells from 0 hour” value ([4]; 0 to 72 hours)?
A: Its value is “gradually decreased with time”.

Q: What about the Induction of apotosis ([4]; 72 hours) of the same compound?
A: Its Induction of apotosis is “so high that the living cells hardly remain after 72 hours”.

Q: What about the “Living cells from 0 hour” value ([5]; 0 to 72 hours) of the same compound?
A: The value was “gradually decreased with time”.

Q: What about the Induction of apotosis [5] of the same compound?
A: The Induction of apotosis was “induced, but the effect thereon can be seen to be lower”.

Q: What about the “Living cells from 0 hour” value ([6]; 0 to 72 hours) of the same compound?
A: Its value is “gradually decreased with time”.

Q: And the Induction of apotosis ([6]; 72 hours)?
A: The Induction of apotosis was “so high that the living cells hardly remain after 72 hours”.
